According to patent US5424395A (priority 1992, dated 1995):
“Also recorded” adds a separate entry of the source. Where no end group is shown, it is not given here.

Key:
[1] = extracellular fluid (ECF) from tobacco leaf in 50 mM Tris, pH 7.4; settings: 37° C., up to one hour
[2] = test system: extracellular plant proteases; assay: Resistance to proteolytic degradation by leaf extracellular fluid (ECF), HPLC; assay type: in vitro ADME, tobacco; settings: 2.5% (v/v) ECF, 50 mM Tris pH 7.4, 37° C., one hour, relative to area of parent peak with no added ECF
From the text: To determine the sensitivity of AMPPPs to extracellular proteases, and to determine the site of processing by these proteases, a system was designed to obtain extracellular fluid from leaves of maize, tobacco, and potato and to use these to test the stability of AMPPPs.
Extracellular fluid (ECF) was obtained in accordance with Z. Klement, "Method Of Obtaining Fluid From the Intercellular Space of Foliage and the Fluid's Merit As Substrate For Phytobacterial Pathogens," supra by cutting interveinal pieces from tobacco leaf after they were rinsed in deionized water. The segments were submerged in water in a vacuum desiccator and vacuum was applied for five to 10 minutes. The vacuum was released slowly, the leaves were blotted dry and four to five pieces were rolled and placed in a 50 mL disposable syringe barrel cut down so as to be able to fit in a swinging bucket centrifuge rotor. The syringe barrel was placed in a 50 mL screw cap conical centrifuge tube and centrifuged in a swinging bucket rotor at 500×g for 30 minutes. […]
Peptides were analyzed by reverse phase chromatography on a 4.6 mm×250 mm Vydac C-4 protein column (Nest Group, Southboro, Mass.) using a 0% to 60% acetonitrile gradient in 0.1% TFA in 30 minutes on a Hewlett-Packard HP1090 high pressure liquid chromatograph (Hewlett-Packard, Avondale, Pa.). […] These peptides were purified and analyzed by FAB-MS and amino acid analysis. […]

[3] = test system: Erwinia carotovora carotovora strain SR319 (Ecc SR319); assay: Antibacterial bioassay, minimum complete inhibitory concentration (MCIC); assay type: cell-based; settings: for activity against Ecc SR319 (in words): even at concentrations higher than 150 micrograms AMPPP/mL; for MEAN MCIC VALUE: lowest peptide concentration with no bacterial growth, after 20 hours, Luria broth, 28° C., mean of at least three replicate experiments
Experimental: Erwinia carotovora carotovora strain SR319 (Ecc SR319) (a gift of Dr. C. H. Liao, USDA-ARS, Philadelphia, Pa.) was streaked on a plate of LB agar and grown overnight at 28° C. After 24 hours, a loopful of Ecc SR319 was picked from the agar plate and was added to 3 mL of Luria broth (10 g Bacto-tryptone, 5 g Bacto-yeast extract, and 10 g sodium chloride per liter of solution; autoclaved sterile) in a capped, sterile 10 mL test tube. This culture was grown overnight before its optical density at 630 nm was recorded using a Dynatech MR600 microplate reader (Dynatech Laboratories, Inc., Alexandria, Va.). A portion of the overnight culture was adjusted with Luria broth to obtain a culture with an optical density at 630 nm of 0.2. About 250 microliters of this culture was added to 2250 microliters of Luria broth in a capped, sterile 10 mL test tube before this diluted culture was grown for 3 hours at 28° C. in a shaking incubator. The optical density at 630 nm of the freshly grown culture was recorded and a portion of this mid-logarithmic growth phase culture was diluted 1000-fold with Luria broth to an approximate concentration of about 10^5 colony forming units per mL of culture. About 85 microliters of this diluted culture was added to 12 wells in a 96 well microtiter plate for each AMPPP to be tested, with 1-4 replicate sets of 12 wells prepared for each AMPPP within a single experiment. Stock solutions of each AMPPP were prepared at a concentration of 1 mg/mL and 0-15 microliters of each peptide stock solution were added to a single well in the microtiter plate followed by a sufficient volume of water to bring the total well volume to 100 microliters. Typical peptide volumes assayed were 0, 1, 2, 3, 4, 5, 6, 7, 8, 9, 10 and 15 microliters, which corresponds to a final peptide concentration in the range of 0-150 micrograms/mL. The microtiter plates were sealed with parafilm and incubated on a shaking platform at 28° C. for 44 hours. The optical density of each Ecc SR319 culture well was recorded at 20 hours and then at 44 hours. A minimum complete inhibitory concentration (MCIC) was then determined for each replicate set of varying peptide concentrations for each AMPPP whereby the MCIC is defined as the lowest peptide concentration at which no bacterial growth was observed. Table I lists mean MCIC values computed after 20 hours of treatment from at least three replicate experiments with each AMPPP. "Met(S)(O)" and "Met(R)(O)" refer to the diastereomeric forms of a methionine sulfoxide residue.
Although most of the AMPPP compounds listed in Table I were greater than 95% homogeneous following reverse phase HPLC purification, AMPPPs #24-26 and #28 were only 50-80% pure following partial purification and salt exchange by ion exchange chromatography.

[4] = test system: P3 Fusarium; assay: Antifungal bioassay (spore germination MCIC); assay type: cell-based, P3 Fusarium (field isolate); settings: lowest concentration with no spore germination, after 24 hours
Experimental: (§1) Fungi are grown on an appropriate medium, in this case a potato dextrose agar plate, for several weeks. At the end of that period, the plate was flooded with about 5 mL of sterile distilled water to harvest spores. The spore concentration was determined by use of a hemocytometer and the spore suspension was stored in a sterile tube at 4° C. until it was needed. Then 82 microliters of potato dextrose broth and 3 microliters of spore suspension (ranging from 10^5 to 10^7 spores total) was then added to 12 wells in a 96 well microtiter plate for each AMPPP to be tested, with 1-4 replicate sets of 12 wells prepared for each AMPPP within a single experiment. […] The amount of spore germination and fungal growth was recorded as a qualitative measurement at each observation time using a system of pluses and minuses: [-] meant no germination having occurred, [+] meant swollen spores with an extended germ tube, [++] meant the beginnings of mycelial growth with the overall appearance of a loose lattice, and [+++] meant a dense mycelial growth with the overall appearance of a thick opaque meshwork. The MCIC value for each AMPPP tested was then recorded, where the MCIC value is defined as the lowest peptide concentration at which no spore germination occurred (rating=[-]). […]

[5] = test system: Trichoderma reesei; assay: Antifungal bioassay (spore germination MCIC); assay type: cell-based; settings: lowest concentration with no spore germination, after 24 hours
Experimental: as §1

[6] = test system: P3 Fusarium; assay: Effect of ECF or spent media on antifungal activity of AMPPPs; assay type: cell-based; settings: ECF source Tobacco Leaf, 10% (v/v); comparison of MCIC with and without ECF
From the text: It is critical to understand the effect of plant proteolytic enzymes on AMPPP activity because any AMPPP applied to crop plants will be in contact with plant tissues and any associated plant proteases. It is important to assess the bioactivity of an AMPPP which may be cleaved by one or more plant proteases as well as to recognize that such an event has occurred. An extract of extracellular fluid (ECF) as described in Example 14 is a useful reagent in determining such loss of antimicrobial activity of AMPPPs due to exposure to plant proteases in the extracellular compartment of plant tissues. Bioassay experiments were conducted with 300-1000 pregerminated P3 Fusarium spores essentially as described in Example 13 for various AMPPPs exposed to ECF from several crop species, or exposed to spent media collected as a supernatant from centrifuged three-day-old P3 Fusarium cultures grown in potato dextrose broth (PDB), corn stalk medium (CSM), or water as detailed below. The only major difference in the bioassay method used from that described in Example 13 was that the bioassay was conducted in a total culture volume of 10 microliters rather than 100 microliters. ECF was present in these bioassays at a final concentration of 10% (v/v) and was added concurrently with an AMPPP to the Fusarium spores at various AMPPP concentrations. […]

## GIGKFLFSAKKFGKAFVGEIMNS-OH
[1]
  cleaved bond: Phe7-Ser8

## GIGKFLHAAKKFGKAFVGEIMNS-OH
[1]
  cleaved bond: His7-Ala8

## GIGKFLHEAKKFGKAFVGEIMNS-OH
[1]
  cleaved bond: His7-Glu8

## GIGKFLHSAGKFGKAFVGEIMKS-OH
[1]
  cleaved bond: His7-Ser8

## GIGKFLHSAKKFGKAFVGEIMNS [AMPPP 1, Magainin 2-OH]
[2]
  Total Area Under Chromatogram Peaks: Fragment Gly^1 Xaa^7: 15.2%
[2]; cerebrospinal or other body fluid, read-out: Total Area Under Chromatogram Peaks: Parent AMPPP
  remaining at 1 h: 54.4%

## GIGKFLHSAKKFGKAFVGEIMNS-OH
[1]
  cleaved bond: His7-Ser8; also recorded: Met21-Asn22

## GIGKFLHTAKKFGKAFVGEIMNS-OH
[1]
  cleaved bond: His7-Thr8

## GIGKFLKSAKKFGKAFVGEIMNS-OH
[1]
  cleaved bond: Lys7-Ser8

## GIGKFLRSAKKFGKAFVGEIMNS-OH
[1]
  cleaved bond: Arg7-Ser8

## [Met^21 (R)(O)]Mag 2-OH [AMPPP 7]
[3]
  activity against Ecc SR319 (in words): not active
  MEAN MCIC VALUE: > 150 micrograms/mL
[4]
  Mean MCIC Values against: P3 Fusarium (10^7 spores): 50 micrograms/mL
[5]
  Mean MCIC Values against: Trichoderma reesei (10^6 spores): 75 micrograms/mL

## [Met^21 (S)(O)Mag 2-OH [AMPPP 6]
[3]
  activity against Ecc SR319 (in words): not active
  MEAN MCIC VALUE: > 150 micrograms/mL
[4]
  Mean MCIC Values against: P3 Fusarium (10^7 spores): 40 micrograms/mL
[5]
  Mean MCIC Values against: Trichoderma reesei (10^6 spores): 75 micrograms/mL
[6]
  Approximate % Reduction in Antifungal Activity by ECF: 50%
